Active and inactive are the calls of the source. The rule behind the calls is not given here.

The test system of series [1] is HT-22. Kind of series: Neurotoxicity in mouse hippocampal HT22 cells assessed as cell viability at 1 uM after 24 hrs by MTT assay. In kind it is toxicity, cell-based. Conditions: ht-22, 24 h. In general terms: Tetrazolium assays rely on reduction of a dye to a coloured formazan, in cell work by metabolically active cells.
In series [2] the test system is HT-22. Kind of series: Neurotoxicity in mouse hippocampal HT22 cells assessed as cell viability at 10 uM after 24 hrs by MTT assay. In kind it is toxicity, cell-based. Conditions: ht-22, 24 h.
In series [3] the test system is HT-22. Kind of series: Neurotoxicity in mouse hippocampal HT22 cells assessed as cell viability at 25 uM after 24 hrs by MTT assay. In kind it is toxicity, cell-based. The note with it: ht-22, 24 h.
Series [4] has as its system HT-22. Kind of series: Neuroprotective activity against glutamate induced oxidative stress in mouse hippocampal HT22 cells assessed as cell viability at 1 uM after 24 hrs by MTT assay. In kind it is functional, cell-based.
Series [5] has as its system HT-22. Kind of series: Neuroprotective activity against glutamate induced oxidative stress in mouse hippocampal HT22 cells assessed as cell viability at 10 uM after 24 hrs by MTT assay. In kind it is functional, cell-based.
In series [6] the test system is HT-22. Kind of series: Neuroprotective activity against glutamate induced oxidative stress in mouse hippocampal HT22 cells assessed as cell viability at 25 uM after 24 hrs by MTT assay. In kind it is functional, cell-based.
In series [7] the test system is HT-22. The series is described as follows: Neuroprotective activity against glutamate induced oxidative stress in mouse hippocampal HT22 cells assessed as cell viability at 50 uM after 24 hrs by MTT assay. In kind it is functional, cell-based.
Series [8] in a line: Hepatotoxicity against human HSC cells assessed as reduction in cell number up to 200 uM after 24 hrs using crystal violet staining by photometry. In kind it is toxicity, cell-based.
A short description of series [9]: Hepatotoxicity against human HSC cells assessed as reduction in cell number at 10 to 75 uM after 24 hrs by fluorescence microscopic analysis. In kind it is toxicity, cell-based.
Series [10] is described as follows: Hepatotoxicity against human HSC cells assessed as mitochondrial swelling at 50 to 75 uM after 24 hrs by fluorescence microscopic analysis. In kind it is toxicity, cell-based.
The subject of series [11] is Rattus norvegicus. The series is described as follows: Hepatoprotective activity in Wistar rat assessed as decrease in tissue content of TBARS at 2 uM/100 gram of body weight, ip after 24 hrs. In kind it is functional. Also on record: scale not given: the % may be the effect or the level left.
Series [12] concerns the target Acetylcholinesterase (Electrophorus electricus, UniProt O42275).
Description: Inhibition of electric eel AChE by colorimetric Ellman assay
Series [13] has as its target Cholinesterase (Equus caballus, UniProt P81908).
Series [14] has as its target Acetylcholinesterase (Electrophorus electricus) (UniProt O42275). The series is described as follows: Inhibition of electric eel AChE at 100 uM by colorimetric Ellman assay.
For series [15], the target named is Cholinesterase (Equus caballus) (UniProt P81908). The series is described as follows: Inhibition of […] at 100 uM by colorimetric Ellman assay. (In general: In Ellman's method for cholinesterases, released thiocholine reacts with DTNB.)
In series [16] the test system is Rattus norvegicus. Kind of series: Hepatoprotective against tacrine-induced toxicity in Wistar rat liver assessed as increase in ratio of reduced/oxidised glutathione at 2 uM/100 gram of body weight, ip after 24 hrs. In kind it is functional, organism-based.
Series [17] deals with Rattus norvegicus. The series is described as follows: Hepatoprotective against tacrine-induced toxicity in Wistar rat liver assessed as increase in ratio of reduced/oxidised glutathione at 6 uM/100 gram of body weight, ip after 24 hrs. In kind it is functional, organism-based.
The subject of series [18] is Rattus norvegicus. Kind of series: Hepatoprotective activity against tacrine-induced toxicity in Wistar rat liver assessed as decrease in tissue content of TBARS at 2 uM/100 gram of body weight, ip after 24 hrs. In kind it is functional. On the set-up: scale not given: the % may be the effect or the level left.

Cholinesterase, sequence (P81908 whole entry): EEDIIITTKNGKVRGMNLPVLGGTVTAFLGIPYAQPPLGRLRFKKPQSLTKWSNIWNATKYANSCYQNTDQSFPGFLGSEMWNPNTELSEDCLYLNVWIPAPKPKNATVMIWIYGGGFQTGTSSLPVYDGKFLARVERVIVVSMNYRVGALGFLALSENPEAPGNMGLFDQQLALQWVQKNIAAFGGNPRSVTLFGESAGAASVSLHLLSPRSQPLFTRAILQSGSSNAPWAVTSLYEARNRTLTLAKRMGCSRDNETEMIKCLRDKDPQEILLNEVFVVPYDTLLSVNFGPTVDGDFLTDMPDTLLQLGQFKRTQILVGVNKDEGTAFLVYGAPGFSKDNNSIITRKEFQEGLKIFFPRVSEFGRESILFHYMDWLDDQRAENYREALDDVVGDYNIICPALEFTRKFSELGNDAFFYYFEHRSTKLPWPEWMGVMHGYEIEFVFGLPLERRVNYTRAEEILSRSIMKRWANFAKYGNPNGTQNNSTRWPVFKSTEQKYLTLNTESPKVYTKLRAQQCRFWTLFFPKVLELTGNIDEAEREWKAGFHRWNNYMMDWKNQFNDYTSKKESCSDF
Acetylcholinesterase, sequence (O42275 whole entry): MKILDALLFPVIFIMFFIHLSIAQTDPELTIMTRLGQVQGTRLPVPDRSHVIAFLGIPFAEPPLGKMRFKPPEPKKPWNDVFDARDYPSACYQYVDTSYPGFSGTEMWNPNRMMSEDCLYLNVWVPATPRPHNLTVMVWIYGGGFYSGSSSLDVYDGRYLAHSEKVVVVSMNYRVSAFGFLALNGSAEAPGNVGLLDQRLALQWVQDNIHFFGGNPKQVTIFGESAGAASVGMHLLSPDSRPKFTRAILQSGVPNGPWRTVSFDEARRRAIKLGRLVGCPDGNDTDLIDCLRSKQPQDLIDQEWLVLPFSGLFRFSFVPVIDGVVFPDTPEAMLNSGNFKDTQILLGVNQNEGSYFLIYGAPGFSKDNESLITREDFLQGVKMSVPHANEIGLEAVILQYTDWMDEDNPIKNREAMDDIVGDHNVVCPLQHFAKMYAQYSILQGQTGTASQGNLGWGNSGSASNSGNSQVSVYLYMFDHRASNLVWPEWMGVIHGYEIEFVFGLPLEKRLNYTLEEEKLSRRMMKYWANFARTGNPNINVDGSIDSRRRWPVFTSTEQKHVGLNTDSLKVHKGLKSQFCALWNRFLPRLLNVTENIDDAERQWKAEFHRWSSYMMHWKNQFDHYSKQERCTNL
Acetylcholinesterase (Electrophorus electricus), sequence (O42275 24-633 limits assumed): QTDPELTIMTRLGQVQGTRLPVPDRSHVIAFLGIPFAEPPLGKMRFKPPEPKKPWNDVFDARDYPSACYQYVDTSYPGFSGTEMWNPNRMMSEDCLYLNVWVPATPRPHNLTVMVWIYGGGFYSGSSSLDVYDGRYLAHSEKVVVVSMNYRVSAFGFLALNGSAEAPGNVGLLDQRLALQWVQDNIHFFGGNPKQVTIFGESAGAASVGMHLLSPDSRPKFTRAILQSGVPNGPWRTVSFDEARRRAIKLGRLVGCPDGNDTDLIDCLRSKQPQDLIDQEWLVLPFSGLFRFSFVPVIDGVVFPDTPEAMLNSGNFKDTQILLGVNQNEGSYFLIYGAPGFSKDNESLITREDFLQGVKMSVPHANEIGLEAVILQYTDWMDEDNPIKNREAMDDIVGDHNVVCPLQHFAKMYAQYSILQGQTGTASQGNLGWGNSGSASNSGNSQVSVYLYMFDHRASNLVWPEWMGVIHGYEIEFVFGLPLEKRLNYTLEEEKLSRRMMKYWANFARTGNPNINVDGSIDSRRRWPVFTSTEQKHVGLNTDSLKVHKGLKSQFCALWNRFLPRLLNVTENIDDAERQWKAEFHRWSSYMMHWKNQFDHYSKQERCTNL
Cholinesterase (Equus caballus), sequence (P81908 whole entry): as the sequence (P81908 whole entry) above

What is called IC50 is the concentration that inhibits the measured activity by half. Turning to `COc1cc([C@@H]2Oc3cc([C@H]4Oc5cc(O)cc(O)c5C(=O)[C@@H]4O)ccc3O[C@H]2COC(=O)CCC(=O)NCCCCCCNc2c3c(nc4ccccc24)CCCC3)ccc1O`, the Activity entry in series [1], in series [2], in series [3], in [8], in [9] and in series [10] was “Non-toxic” in each case. Moreover, in series [11], the Activity amounted to 25%. For the same compound, the result in [4], in series [5], in series [6] and in [7] was Active. Besides, the IC50 in series [12] was found to be 53.9 nM; in series [13] it was 49.7 nM.

What is called inhibition is the drop in the measured response relative to a control, in per cent. Take `COc1cc(C2Oc3cc([C@H]4Oc5cc(O)cc(O)c5C(=O)[C@@H]4O)ccc3OC2CO)ccc1O` (stereo partly specified) [SILIBININ]: the values for the inhibition in [14] and in series [15] were 5.5% and 3.1%, respectively. The outcome in [4], in series [5], in series [6] and in [7] was inactive. The result in series [16] and in [17] was Active. Also, the Activity in series [18] stood at 15%.

For `O=C(O)CCC(=O)NCCCCCCNc1c2c(nc3ccccc13)CCCC2`, the IC50 stood at 102 nM in [12] and 361 nM in series [13].

Turning to `NCCCCCCNc1c2c(nc3ccccc13)CCCC2`, the IC50 in series [12] is 39 nM; in [13], 2 nM.

These data come from ChEMBL document CHEMBL2203098 (J Med Chem, 2012).
